# Measurements as given in PubChem BioAssay (NCI).
#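 1) Cells in 96-well plates. 2) Compound, 48 h, 5 concentrations. 3) Linear interpolation between surrounding doses. 4) Unreached endpoint = highest concentration. Abbreviation: GI50, concentration required for 50% inhibition of growth. TGI marks complete inhibition of growth.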
# Assays:
# Assay in all cases: NCI anticancer screen, dose series, 48 h
# HOP-62 NSCLC = system: HOP-62 NSCLC
# TK-10 renal = system: TK-10 renal
# SK-MEL-5 melanoma = system: SK-MEL-5 melanoma
# NCI-H522 lung = system: NCI-H522 lung
# SF-295 CNS = system: SF-295 CNS
# OVCAR-3 ovarian = system: OVCAR-3 ovarian
# RXF 393 renal = system: RXF 393 renal
# DU-145 prostate = system: DU-145 prostate
# KM12 colon = system: KM12 colon
# NCI-H23 lung = system: NCI-H23 lung
# MALME-3M melanoma = system: MALME-3M melanoma
# MDA-MB-231 breast = system: MDA-MB-231 breast
# ACHN renal = system: ACHN renal
# M14 melanoma = system: M14 melanoma
# HS 578T breast = system: HS 578T breast
# UO-31 renal = system: UO-31 renal
# HL-60(TB) leukemia = system: HL-60(TB) leukemia
# HCT-116 colon = system: HCT-116 colon
# RPMI-8226 leukemia = system: RPMI-8226 leukemia
# BT-549 breast = system: BT-549 breast
# MDA-MB-468 breast = system: MDA-MB-468 breast
# UACC-257 melanoma = system: UACC-257 melanoma
# SK-OV-3 ovarian = system: SK-OV-3 ovarian
# EKVX NSCLC = system: EKVX NSCLC
# SNB-19 CNS = system: SNB-19 CNS
# SN12C renal = system: SN12C renal
# OVCAR-4 ovarian = system: OVCAR-4 ovarian
# U251 CNS = system: U251 CNS
# PC-3 prostate = system: PC-3 prostate
# HT29 colon = system: HT29 colon
# SR leukemia = system: SR leukemia
# HOP-92 NSCLC = system: HOP-92 NSCLC
# NCI-H226 lung = system: NCI-H226 lung
# COLO 205 colon = system: COLO 205 colon
# MOLT-4 leukemia = system: MOLT-4 leukemia
# A498 renal = system: A498 renal
# SW-620 colon = system: SW-620 colon
# OVCAR-5 ovarian = system: OVCAR-5 ovarian
# HCC-2998 colon = system: HCC-2998 colon
# SK-MEL-28 melanoma = system: SK-MEL-28 melanoma
# CAKI-1 renal = system: CAKI-1 renal
# MDA-MB-435 = system: MDA-MB-435
# LOX IMVI melanoma = system: LOX IMVI melanoma
# SNB-75 CNS = system: SNB-75 CNS
# 786-0 renal = system: 786-0 renal
# MCF7 breast = system: MCF7 breast
# CCRF-CEM leukemia = system: CCRF-CEM leukemia
# K-562 leukemia = system: K-562 leukemia
# T-47D breast = system: T-47D breast
# HCT-15 colon = system: HCT-15 colon
# IGROV1 ovarian = system: IGROV1 ovarian
# UACC-62 melanoma = system: UACC-62 melanoma
# SF-539 CNS = system: SF-539 CNS
# NCI-H460 lung = system: NCI-H460 lung
# OVCAR-8 ovarian = system: OVCAR-8 ovarian
# A549 NSCLC = system: A549 NSCLC
# SF-268 CNS = system: SF-268 CNS
smiles,measurement,setting,value
CCCCSc1nc(NCCc2c[nH]c3ccccc23)c(C#N)c(-c2ccccc2)n1,GI50,HOP-62 NSCLC,12.8 µM
same,TGI,HOP-62 NSCLC,29.7 µM
same,GI50,TK-10 renal,26.1 µM
same,TGI,TK-10 renal,54.7 µM
same,GI50,SK-MEL-5 melanoma,9.88 µM
same,TGI,SK-MEL-5 melanoma,21.5 µM
same,GI50,NCI-H522 lung,15.5 µM
same,TGI,NCI-H522 lung,32.5 µM
same,GI50,SF-295 CNS,13.8 µM
same,TGI,SF-295 CNS,29.8 µM
same,GI50,OVCAR-3 ovarian,14.7 µM
same,TGI,OVCAR-3 ovarian,29.1 µM
same,GI50,RXF 393 renal,11.9 µM
same,TGI,RXF 393 renal,25.8 µM
same,GI50,DU-145 prostate,14.1 µM
same,TGI,DU-145 prostate,32.1 µM
same,GI50,KM12 colon,4.59 µM
same,TGI,KM12 colon,18 µM
same,GI50,NCI-H23 lung,12.8 µM
same,TGI,NCI-H23 lung,27.9 µM
same,GI50,MALME-3M melanoma,17.7 µM
same,TGI,MALME-3M melanoma,32.6 µM
same,GI50,MDA-MB-231 breast,11.1 µM
same,TGI,MDA-MB-231 breast,25.4 µM
same,GI50,ACHN renal,12.7 µM
same,TGI,ACHN renal,28.5 µM
same,GI50,M14 melanoma,12.3 µM
same,TGI,M14 melanoma,26.9 µM
same,GI50,HS 578T breast,12.5 µM
same,TGI,HS 578T breast,61.5 µM
same,GI50,UO-31 renal,14.6 µM
same,TGI,UO-31 renal,34.3 µM
same,GI50,HL-60(TB) leukemia,16 µM
same,TGI,HL-60(TB) leukemia,82.5 µM
same,GI50,HCT-116 colon,3.82 µM
same,TGI,HCT-116 colon,16.5 µM
same,GI50,RPMI-8226 leukemia,12.1 µM
same,TGI,RPMI-8226 leukemia,> 100 µM
same,GI50,BT-549 breast,12.3 µM
same,TGI,BT-549 breast,25.7 µM
same,GI50,MDA-MB-468 breast,5.3 µM
same,TGI,MDA-MB-468 breast,18.8 µM
same,GI50,UACC-257 melanoma,20.4 µM
same,TGI,UACC-257 melanoma,47 µM
same,GI50,SK-OV-3 ovarian,22.4 µM
same,TGI,SK-OV-3 ovarian,61.3 µM
same,GI50,EKVX NSCLC,10 µM
same,TGI,EKVX NSCLC,32.4 µM
same,GI50,SNB-19 CNS,17.2 µM
same,TGI,SNB-19 CNS,34.6 µM
same,GI50,SN12C renal,12.7 µM
same,TGI,SN12C renal,25.5 µM
same,GI50,OVCAR-4 ovarian,11.8 µM
same,TGI,OVCAR-4 ovarian,34.8 µM
same,GI50,U251 CNS,11.4 µM
same,TGI,U251 CNS,25.3 µM
same,GI50,PC-3 prostate,4.42 µM
same,TGI,PC-3 prostate,37.9 µM
same,GI50,HT29 colon,4.34 µM
same,TGI,HT29 colon,16.4 µM
same,GI50,SR leukemia,4.88 µM
same,TGI,SR leukemia,> 100 µM
same,GI50,HOP-92 NSCLC,5.54 µM
same,TGI,HOP-92 NSCLC,25.4 µM
same,GI50,NCI-H226 lung,12.4 µM
same,TGI,NCI-H226 lung,27.3 µM
same,GI50,COLO 205 colon,11.5 µM
same,TGI,COLO 205 colon,29.5 µM
same,GI50,MOLT-4 leukemia,5.73 µM
same,TGI,MOLT-4 leukemia,78.8 µM
same,GI50,A498 renal,16.2 µM
same,TGI,A498 renal,31.6 µM
same,GI50,SW-620 colon,6.48 µM
same,TGI,SW-620 colon,23.3 µM
same,GI50,OVCAR-5 ovarian,12.6 µM
same,TGI,OVCAR-5 ovarian,26 µM
same,GI50,HCC-2998 colon,7.92 µM
same,TGI,HCC-2998 colon,21.8 µM
same,GI50,SK-MEL-28 melanoma,14.5 µM
same,TGI,SK-MEL-28 melanoma,29.1 µM
same,GI50,CAKI-1 renal,5.56 µM
same,TGI,CAKI-1 renal,20.7 µM
same,GI50,MDA-MB-435,13.7 µM
same,TGI,MDA-MB-435,27.4 µM
same,GI50,LOX IMVI melanoma,4.48 µM
same,TGI,LOX IMVI melanoma,15.5 µM
same,GI50,SNB-75 CNS,14.1 µM
same,TGI,SNB-75 CNS,47 µM
same,GI50,786-0 renal,10.5 µM
same,TGI,786-0 renal,27 µM
same,GI50,MCF7 breast,5.26 µM
same,TGI,MCF7 breast,19.7 µM
same,GI50,CCRF-CEM leukemia,5.38 µM
same,TGI,CCRF-CEM leukemia,> 100 µM
same,GI50,K-562 leukemia,4.91 µM
same,TGI,K-562 leukemia,> 100 µM
same,GI50,T-47D breast,3.78 µM
same,TGI,T-47D breast,19.4 µM
same,GI50,HCT-15 colon,4.44 µM
same,TGI,HCT-15 colon,16.9 µM
same,GI50,IGROV1 ovarian,16 µM
same,TGI,IGROV1 ovarian,32.3 µM
same,GI50,UACC-62 melanoma,13.7 µM
same,TGI,UACC-62 melanoma,26.6 µM
same,GI50,SF-539 CNS,12.3 µM
same,TGI,SF-539 CNS,27.2 µM
same,GI50,NCI-H460 lung,4.2 µM
same,TGI,NCI-H460 lung,18.4 µM
same,GI50,OVCAR-8 ovarian,23.7 µM
same,TGI,OVCAR-8 ovarian,> 100 µM
same,GI50,A549 NSCLC,22 µM
same,TGI,A549 NSCLC,82.3 µM
same,GI50,SF-268 CNS,14.6 µM
same,TGI,SF-268 CNS,43.7 µM
